Experimental data from article PMC7804859, “A metabolically stable apelin-17 analog decreases AVP-induced antidiuresis and improves hyponatremia” (Nature Communications, 2021).
Where “and” joins values, the source holds several entries; their conditions need not be identical. Equal entries are not always repeated.

What was measured:
[1] = tested on: kidneys of normonatremic Sprague-Dawley rats; experiment: Kidney histology after 4 days of s.c. administration in rats; format: in vivo, rat; design: Tubular injury score: scale not given here
Description: 278 Kidneys were fixed in paraformaldehyde 4% overnight and processed for paraffin embedding.
279 Sections of 4 μm thickness were made and stained with the periodic acid-Schiff (PAS)
280 reagent and counterstained with hematoxylin. Histological analyzes were performed by a
281 trained nephrologist (AF), blinded of the treatment group. Tubular injury score was scored
283 vacuolization, epithelial cell shedding, and denuded tubular basement membrane, as follows:
285 calculated from twenty viewing fields selected randomly from the outer medulla and
286 corticomedullary junction and were examined at ×400 magnification. […]

[2] = Plasma protein binding (Rapid Equilibrium Dialysis); format: in vitro ADME; conditions: RED plate, 12 kDa cutoff, plasma vs phosphate buffer, 10 µmol/l, 4 hours, 37 °C, 600 rpm, UHPLC-MS/MS; value at equilibrium
Description: 252 TechMedILL platfor m (Illkirch) reviewed and approved by the agriculture ministry regulating
256 Male Sprague-Dawley rats were killed by decapitation, and trunk blood was collected on ice
257 (into 50 µl of 0.3M EDTA (pH 7.4) per 1 ml of blood). Samples were centrifuged (2,600 x g,
258 4°C, 20 min), and the resulting plasma was split into 500 µl aliquots, to which we added 168
259 µl of 3N HCl before storage at -80°C. The AVP RIA was performed as previously described
260 5, using a specific AVP-[Arg8] antibody (final dilution, 1/4.5) and [125I]-(Tyr2Arg8)-AVP
261 (2200 Ci/mmol, Perkin-Elmer, Billerica, MA; 15000 dpm) as a tracer.
263 Plasma protein binding of LIT01-196 was determined using Thermo Scientific Single-Use
264 RED Plate (Rapid Equilibrium Dialysis) composed of dialysis inserts with a me mbrane cutoff
265 of 12 kDa. Compound (10 µmol/l) was spiked in plasma chamber (donor side); phosphate
266 buffer was placed in the receiving side. The plate was rotated at 37 °C on an orbital shaker at
267 600 rpm for 4 hours. Peptide concentration was determined for the plasma sample that
268 represents the bound fraction, the peptide concentration was deter mined for the buffer sample
269 that represents the free fraction. The samples were analyzed by UHPLC-MS/MS (LC-MS […]
274 proteins. Percentages of bound and free peptides were calculated as follows: % free peptide = […]

[3] = Plasma LIT01-196 levels by mass spectrometry after i.v. injection in mice; format: in vivo, mouse; conditions: for Apelin (plasma LIT01-196 concentration by mass spectrometry): 300 nmol/kg IV
Description: The detection limit was 6
The within- and between-assay
229 coefficients of variation were 3 and 5%, respectively6. The recovery (mean±SEM) was
233 the elimination rate constant.
236 animals per time point).
242 and 0.05% formic acid; solvent B: acetonitrile). Plasma samples were processed before RP-
244 acetonitrile for protein precipitation and compound extraction. Samples were vortex-stirred
248 standard and compared to standard curves. Standard curves were obtained by analyzing
250 using the same procedure. Pharmacokinetics parameters were calculated using a one-
Peptide injection and blood sample collection were performed by […]

[4] = tested on: alert Sprague-Dawley rats; experiment: Mean arterial blood pressure in alert rats; format: in vivo, rat; design: SBP_Baseline / SBP_3h / SBP_24h: unit not given here
Description: 291 Blood pressure measurements
292 Rats were implanted with a right femoral artery catheter which was passed beneath the skin
293 under isoflurane anesthesia. Blood pressure (BP) was recorded in male alert Sprague Dawley
294 rats after a recovery period of at least 24 hours, with a PowerLab/Labchart system
295 (ADInstruments, Dunedin, New Zealand) connected to the arterial catheter via a pressure
296 transducer. Mean arterial BP (MABP) was calculated from the arterial pressure signal as
297 previously described 7. The compound was administered s.c. after baseline BP recording for at
298 least 30 minutes. BP was then measured at 3 and 24 hours after administration. At the end of
299 the experiment, animals were killed with a lethal dose of pentobarbital (Dolethal ®, 150

[5] = tested on: rat outer medullary collecting ducts (OMCDs); experiment: dDAVP-induced cAMP production in microdissected rat outer medullary collecting ducts; format: cell-based
Description: The left kidney of male rats was prepared for nephron microdissection, as previously described[51]. Pieces of OMCDs were isolated under a stereomicroscope.
Then cells were treated with 10
180 37°C. Then the media was removed and 100 µl of lysis buffer (Cisbio Bioassays, Codolet,
181 France) was added to Transwell filter and plate was incubated at 20°C for 2 hours. Cell
183 384-well plates (Perkin Elmer) according to manufacturer’s instructions (Cisbio Bioassays,
184 Codolet, France). Cyclic AMP levels were measured in microdissected OMCDs by the same
Results are expressed in femtomoles of cAMP produced
186 per mm tubular length and per 10 min incubation time at 37°C.

[6] = tested on: normonatremic Sprague-Dawley rats; experiment: Effects of s.c. administration on metabolic parameters in normonatremic rats; format: in vivo, rat
mice = experiment: Left ventricular ejection fraction by echocardiography in mice; format: in vivo, mouse
Description: LVEF was determined in mice under isoflurane anesthesia at baseline and 3 h after s.c. administration of the compound, as previously described.

[7] = 900 nmol/kg SC (tolvaptan 0.4.SC [sic]), normonatremic rats, single animals

With `CSCC[C@H](NC(=O)[C@@H]1CCCN1C(=O)CNC(=O)[C@H](CCCCN)NC(=O)[C@H](Cc1c[nH]cn1)NC(=O)[C@H](CO)NC(=O)[C@H](CC(C)C)NC(=O)[C@H](CCCNC(=N)N)NC(=O)[C@@H]1CCCN1C(=O)[C@H](CCCNC(=N)N)NC(=O)[C@H](CCC(N)=O)NC(=O)[C@H](CCCNC(=N)N)NC(=O)[C@H](CCCNC(=N)N)NC(=O)[C@H](Cc1ccccc1)NC(=O)[C@H](CCCCN)NC(=O)CCC(F)(F)C(F)(F)C(F)(F)C(F)(F)C(F)(F)C(F)(F)C(F)(F)C(F)(F)F)C(=O)N1CCC[C@H]1C(=O)N[C@@H](Cc1ccccc1)C(=O)O` [LIT01-196] the Tubular injury score ([1]; 900 nmol/kg SC, individual animals (Fig. S5C source data)) was 0.105 and 0.1 and 0.05 and 0.15 and 0, the Glomerular injury score ([1]; 900 nmol/kg SC, individual animals (Fig. S5D source data)) was 0.09091 and 0.1053 and 0.1429 and 0.04762 and 0.05 and the “histological analysis of the kidneys” value ([1]; 900 nmol/kg s.c. for 4 consecutive days, rats) was “did not reveal any abnormality”. The “bound fraction to plasma proteins” value [2] was 69 ± 7%, the “Apelin (plasma LIT01-196 concentration by mass spectrometry)” value (“Apelin” for short) ([3]; temps.min 5, single animals) was 774.627 and 804.594 and 622.343 and the “Apelin” value ([3]; temps.min 15, single animals) was 548.524 and 627.056 and 820.177. The “Apelin” value ([3]; temps.min 28, single animals) was 266.538 and 138.326 and 371.965, the “Apelin” value ([3]; temps.min 60, single animals) was 64.4359 and 230.369 and 324.336 and the half-life ([3]; CD-1, mouse, in vivo, iv, 300 nmol/kg i.v., UHPLC-MS/MS, one-compartment model, 3 animals per time point) was 29 min. The SBP_3h ([4]; 900 nmol/kg SC, 3h, individual animals (Fig. S5A source data)) was 100.529 and 94.7199 and 92.7855 and 89.7756 and 91.9306, the SBP_24h ([4]; 900 nmol/kg SC, 24h, individual animals (Fig. S5A source data)) was 122.566 and 101.322 and 101.468 and 97.9055 and the SBP_Baseline ([4]; 900 nmol/kg SC, baseline, individual animals (Fig. S5A source data)) was 113.98 and 106.154 and 101.631 and 106.857 and 101.074. For the same molecule, the “MABP 24 h after administration” value ([4]; 900 nmol/kg s.c., alert rats) was “did not significantly differ from baseline”, the “mean arterial blood pressure (MABP) 3 h after administration” value ([4]; 900 nmol/kg s.c., alert rats, n = 5, baseline 106 ± 2, p = 0.063) was 94 ± 2 mmHg and the “inhibition of dDAVP-induced cAMP production in OMCDs” value ([5]; co-application with dDAVP 0.1 nmol/l, increasing concentrations 50 nmol/l to 50 µmol/l) was 41%. For the same molecule, the “cAMP production, value (Fig 2E)” value ([5]; peptide 5.10-5M, experiment 1) was 50, the “cAMP production, value (Fig 2E)” value ([5]; peptide 5.10-5M, experiment 2) was 47 and the “cAMP production, value (Fig 2E)” value ([5]; peptide 5.10-5M, experiment 3) was 56. The “cAMP production, value (Fig 2E)” value ([5]; peptide 5.10-5M, experiment 4) was 50, the “cAMP production, value (Fig 2E)” value ([5]; peptide 5.10-5M, experiment 5) was 48 and the “cAMP production, value (Fig 2E)” value ([5]; peptide 5.10-5M, experiment 6) was 49. For the same molecule, the “cAMP production, value (Fig 2E)” value ([5]; peptide 5.10-7M, experiment 1) was 55, the “cAMP production, value (Fig 2E)” value ([5]; peptide 5.10-7M, experiment 2) was 58 and the “cAMP production, value (Fig 2E)” value ([5]; peptide 5.10-7M, experiment 3) was 52. The “cAMP production, value (Fig 2E)” value ([5]; peptide 5.10-7M, experiment 4) was 54, the “cAMP production, value (Fig 2E)” value ([5]; peptide 5.10-7M, experiment 5) was 56 and the “cAMP production, value (Fig 2E)” value ([5]; peptide 5.10-7M, experiment 6) was 53. The “cAMP production, value (Fig 2E)” value ([5]; peptide 5.10-8M, experiment 1) was 85, the “cAMP production, value (Fig 2E)” value ([5]; peptide 5.10-8M, experiment 2) was 87 and the “cAMP production, value (Fig 2E)” value ([5]; peptide 5.10-8M, experiment 3) was 90. The “cAMP production, value (Fig 2E)” value ([5]; peptide 5.10-8M, experiment 4) was 83, the “cAMP production, value (Fig 2E)” value ([5]; peptide 5.10-8M, experiment 5) was 88 and the “cAMP production, value (Fig 2E)” value ([5]; peptide 5.10-8M, experiment 6) was 81. The “Urine osmolality (3 hours)” value [6, 7] was 1384 and 748 and 940 and 740 and 756 and 732, the “Urine osmolality (6 hours)” value [6, 7] was 356 and 1028 and 440 and 1112 and 752 and 680 and the “Urine osmolality (24 hours)” value [6, 7] was 1095 and 2308 and 2437 and 1605 and 969 and 1304 and 1184 and 540 and 808 and 632 and 904 and 972 and 1020 and 1112 and 960 and 572 and 760 and 772 and 928 and 708 and 1220 and 1508. The “body weight change (weight loss)” value ([6]; 900 nmol/kg s.c., 24 h) was −1.8%, the “increase in water intake” value ([6]; 900 nmol/kg s.c., 24 h) was 11% and the “increase in water intake to food intake ratio” value ([6]; 900 nmol/kg s.c., 24 h) was 50%. The “increase in free water excretion fraction” value ([6]; 900 nmol/kg s.c., 24 h, n = 6) was 86%, the “decrease in food (normal chow) intake” value ([6]; 900 nmol/kg s.c., 24 h, non-significant) was 20% and the “increase in 24-h urine output relative to saline” value ([6]; 900 nmol/kg s.c., normonatremic rats) was 79%. The “decrease in urine osmolality” value ([6]; 900 nmol/kg s.c., normonatremic rats, 24 h) was 52%, the Water excretion fraction ([6]; LIT01-196 900 nmol/kg SC, individual animals (Fig. S4C source data)) was 0.8192 and 1.335 and 0.9524 and 0.95 and 0.8692 and 1.016 and the Sodium excretion fraction ([6]; LIT01-196 900 nmol/kg SC, individual animals (Fig. S4D source data)) was 0.6321 and 0.5196 and 0.512 and 0.526 and 0.4023 and 0.292. The Sodium excretion fraction ([6]; LIT01-196 900 nmol/kg, tolvaptan 6700 nmol/kg s.c., 24 h) was “not changed”, the “Water to food ratio” value ([6]; normonatremic rats, 900 nmol/kg SC, individual animal values (source data Fig. 4L)) was 1.9011 and 2.746 and 2.674 and 1.755 and 1.9235 and 1.556 and 1.545 and the “FEVG.TM. 3 hours” value (mice; 1200 nmol/kg SC, 3 hours, individual animals (Fig. S5B source data)) was 55.1558 and 58.4253 and 55.5031 and 58.4836 and 58.0536. For the same molecule, the “FEVG.TM. Baseline” value (mice; 1200 nmol/kg SC, baseline, individual animals (Fig. S5B source data)) was 49.7762 and 61.2453 and 58.1457 and 44.7681 and 49.1413 and the “LVEF 3 h after administration” value (mice; 1200 nmol/kg s.c., mice, n = 5, 52.6 ± 3.0 before administration, p = 0.31) was 57.1 ± 0.7%.
